From paper PMC10053552, “Multiple Bioactivities of Peptides from Hydrolyzed Misgurnus anguillicaudatus” (Molecules, 2023)
Blank lines part the entries; values can stand above or below the molecule they belong to.

Tests used:
DPPH scavenging activity = assay type: biochemical; conditions: 0.5 mg/mL, glutathione at the same concentration
[1] = system: pancreatic cholesterol esterase (CE); assay: Pancreatic CE inhibitory activity; assay type: biochemical; conditions: 1 mg/mL (Figure 6a); pNPB substrate, pH 7.2, 37 °C, 30 min, 405 nm
[2] = Hydroxyl radical scavenging activity; assay type: biochemical; conditions: 0.5 mg/mL; amount higher than that of glutathione at the same concentration
[3] = target: angiotensin-converting enzyme (ACE) (UniProt P12821)
Chain of UniProt P12821 (P12821 30-1256): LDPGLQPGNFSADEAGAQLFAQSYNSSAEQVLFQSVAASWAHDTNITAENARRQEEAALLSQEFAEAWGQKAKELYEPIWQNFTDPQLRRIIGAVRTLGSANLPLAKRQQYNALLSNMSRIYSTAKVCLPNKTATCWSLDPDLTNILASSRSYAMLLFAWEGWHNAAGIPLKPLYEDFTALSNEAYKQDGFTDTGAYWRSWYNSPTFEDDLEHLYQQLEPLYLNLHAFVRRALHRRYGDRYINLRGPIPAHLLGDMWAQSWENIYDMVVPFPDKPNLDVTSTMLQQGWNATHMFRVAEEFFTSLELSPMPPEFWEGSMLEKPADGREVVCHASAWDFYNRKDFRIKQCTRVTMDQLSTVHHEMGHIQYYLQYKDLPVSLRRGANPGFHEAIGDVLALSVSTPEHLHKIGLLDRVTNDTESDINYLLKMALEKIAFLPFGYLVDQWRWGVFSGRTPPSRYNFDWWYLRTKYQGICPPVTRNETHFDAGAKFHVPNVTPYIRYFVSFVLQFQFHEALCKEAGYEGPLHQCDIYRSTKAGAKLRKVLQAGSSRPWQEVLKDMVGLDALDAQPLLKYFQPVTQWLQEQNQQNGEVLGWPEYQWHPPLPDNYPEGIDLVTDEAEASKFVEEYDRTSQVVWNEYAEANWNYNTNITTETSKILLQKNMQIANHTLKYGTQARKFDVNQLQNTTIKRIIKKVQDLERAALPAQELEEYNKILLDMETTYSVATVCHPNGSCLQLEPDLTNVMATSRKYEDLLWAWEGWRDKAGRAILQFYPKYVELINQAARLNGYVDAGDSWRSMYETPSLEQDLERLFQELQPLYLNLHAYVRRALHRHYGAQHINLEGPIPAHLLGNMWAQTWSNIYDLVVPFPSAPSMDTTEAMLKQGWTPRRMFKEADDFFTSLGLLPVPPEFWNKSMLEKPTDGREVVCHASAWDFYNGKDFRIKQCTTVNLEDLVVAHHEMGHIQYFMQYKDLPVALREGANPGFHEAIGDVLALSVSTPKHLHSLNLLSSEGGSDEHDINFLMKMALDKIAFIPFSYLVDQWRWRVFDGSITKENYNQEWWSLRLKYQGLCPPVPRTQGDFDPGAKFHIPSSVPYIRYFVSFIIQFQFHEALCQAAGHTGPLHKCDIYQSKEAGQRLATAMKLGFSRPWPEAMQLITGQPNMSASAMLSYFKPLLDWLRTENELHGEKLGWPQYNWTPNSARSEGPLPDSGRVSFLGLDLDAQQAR

[4] = target: pancreatic cholesterol esterase (CE) (UniProt P19835)
Chain of UniProt P19835 (P19835 21-753): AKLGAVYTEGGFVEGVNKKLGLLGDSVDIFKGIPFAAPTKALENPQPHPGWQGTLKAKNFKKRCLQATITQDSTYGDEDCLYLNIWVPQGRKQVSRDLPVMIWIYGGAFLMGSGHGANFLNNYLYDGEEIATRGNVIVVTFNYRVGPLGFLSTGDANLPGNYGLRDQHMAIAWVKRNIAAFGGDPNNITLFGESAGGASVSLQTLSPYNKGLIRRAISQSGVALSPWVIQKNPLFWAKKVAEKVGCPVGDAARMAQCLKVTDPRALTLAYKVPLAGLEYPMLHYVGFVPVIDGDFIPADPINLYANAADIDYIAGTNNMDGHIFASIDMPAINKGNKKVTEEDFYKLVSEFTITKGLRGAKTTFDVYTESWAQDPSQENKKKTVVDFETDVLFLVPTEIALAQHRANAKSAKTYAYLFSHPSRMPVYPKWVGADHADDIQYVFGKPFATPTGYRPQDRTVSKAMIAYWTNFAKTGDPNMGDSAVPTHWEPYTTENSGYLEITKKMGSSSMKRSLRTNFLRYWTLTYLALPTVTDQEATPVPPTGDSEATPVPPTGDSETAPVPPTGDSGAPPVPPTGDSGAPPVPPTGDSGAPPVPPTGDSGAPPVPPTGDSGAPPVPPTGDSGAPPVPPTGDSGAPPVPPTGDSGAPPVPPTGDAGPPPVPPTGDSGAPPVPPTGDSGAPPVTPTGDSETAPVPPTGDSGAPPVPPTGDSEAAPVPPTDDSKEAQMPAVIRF

Molecule: DAGAGIAL [Peptide D-5, peptide DAGAGIAL identified in loach hydrolysate component F2, solid-phase synthesized]
DPPH scavenging activity as percentage of that of glutathione (DPPH scavenging activity): more than 90%

Molecule: NDHFVKL [Peptide D-3, peptide NDHFVKL identified in loach hydrolysate component F2, solid-phase synthesized]
DPPH scavenging activity as percentage of that of glutathione (DPPH scavenging activity): more than 90% | Pancreatic CE inhibition [1]: exhibited inhibitory effects on pancreatic CE

Molecule: SERDPSNIKWGDAGAQ [Peptide D-1, peptide … identified in loach hydrolysate component F2, solid-phase synthesized]
DPPH scavenging activity as percentage of that of glutathione (DPPH scavenging activity): more than 90% | Hydroxyl radical scavenging activity: excess over glutathione [2]: 15.87%

ACE inhibitory activity, percent inhibition (FAPGG hydrolysis; peptide concentration not given) [3]: 92.1% | IC50 of ACE inhibition (enzyme activity, FAPGG hydrolysis, absorbance at 340 nm, 37 °C, pH 8.3) [3]: 0.12 mM
B1: peptide D-4 (AFRVPTP) (peptide)
peptide: AFRVPTP

IC50 of pancreatic CE inhibition (enzyme activity, pNPB hydrolysis, absorbance at 405 nm, 37 °C, pH 7.2) [4]: 2.62 mM
B2: peptide D-2 (…) (peptide)
peptide: TVDGPSGKLWR
